These compounds were tested against T1, CD73 activity in MDA-MB-231-GFP cells (Homo sapiens, UniProt P21589) (assay: MDA-MB-231 Cell Based CD73 Activity Assay (DMEM)). Conditions: 3000 cells per well, DMEM medium with 10% human plasma, overnight compound treatment, AMP 200 uM.
T1 construct: endogenous in cells; host or cells: MDA-MB-231-GFP cells
T1 sequence (P21589 27-549): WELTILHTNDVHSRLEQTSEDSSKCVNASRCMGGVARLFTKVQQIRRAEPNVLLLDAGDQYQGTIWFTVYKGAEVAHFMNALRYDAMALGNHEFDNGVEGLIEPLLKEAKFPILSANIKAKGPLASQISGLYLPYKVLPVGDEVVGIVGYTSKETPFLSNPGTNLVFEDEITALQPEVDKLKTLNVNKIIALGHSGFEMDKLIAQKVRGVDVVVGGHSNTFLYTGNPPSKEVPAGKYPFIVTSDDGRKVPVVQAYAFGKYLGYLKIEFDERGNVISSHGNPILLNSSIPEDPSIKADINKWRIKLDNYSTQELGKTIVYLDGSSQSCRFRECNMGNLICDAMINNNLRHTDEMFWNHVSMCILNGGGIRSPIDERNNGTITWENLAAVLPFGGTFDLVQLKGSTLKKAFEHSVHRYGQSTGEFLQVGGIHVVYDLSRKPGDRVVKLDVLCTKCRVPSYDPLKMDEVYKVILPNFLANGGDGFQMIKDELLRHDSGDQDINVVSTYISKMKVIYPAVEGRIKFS
Method: MDA-MB-231 Cell Based CD73 Activity Assay (DMEM) MDA-MB-231-GFP cells were seeded in 384-well plates (Greiner 781946) at a density of 3000 cells per well in 50 μL of DMEM medium with 10% HP (human plasma). Cells were plated into assay plate with compounds pre-spotted, for an overnight compound treatment. 50 uL of 400 uM AMP (final concentration will be 200 uM) was added using Bio-tek dispenser. Plates were incubated for 100 mins. […] The samples were analyzed using Rapid fire.
Work on CN(C)C(=O)c1cccc([C@H]2C[C@@H]2c2cc(-c3c[nH]c(=O)[nH]c3=O)nn3ccnc23)c1 (racemic) [Example 287, 3-((2S,2S)-2-(6-(2,4-dioxo-1,2,3,4-tetrahydropyrimidin-5-yl)imidazo[1,2-b]pyridazin-8-yl)cyclopropyl)-N,N-dimethylbenzamide] yielded an EC50 of 12.5 nM. CN(C)C(=O)c1ccc([C@H]2C[C@@H]2c2cc(-c3c[nH]c(=O)[nH]c3=O)nn3ccnc23)cc1 (racemic) [Example 288, 4-((2S,2S)-2-(6-(2,4-dioxo-1,2,3,4-tetrahydropyrimidin-5-yl)imidazo[1,2-b]pyridazin-8-yl)cyclopropyl)-N,N-dimethylbenzamide] was tested, and the EC50 was 35.7 nM. O=C(c1ccc([C@H]2C[C@@H]2c2cc(-c3c[nH]c(=O)[nH]c3=O)nn3ccnc23)cc1)N1CCC1 (racemic) [Example 289, 5-(8-((2S,2S)-2-(4-(azetidine-1-carbonyl)phenyl)cyclopropyl)imidazo[1,2-b]pyridazin-6-yl)pyrimidine-2,4(1H,3H)-dione] was tested, and the EC50 was 7.24 nM. For CC1CN(C(=O)c2ccc([C@H]3C[C@@H]3c3cc(-c4c[nH]c(=O)[nH]c4=O)nn4ccnc34)cc2)C1 (racemic) [Example 290, 5-(8-((2S,2S)-2-(4-(3-methylazetidine-1-carbonyl)phenyl)cyclopropyl)imidazo[1,2-b]pyridazin-6-yl)pyrimidine-2,4(1H,3H)-dione], the EC50 was 9.64 nM. For O=C(c1ccc([C@H]2C[C@@H]2c2cc(-c3c[nH]c(=O)[nH]c3=O)nn3ccnc23)cc1)N1CC(C(F)(F)F)C1 (racemic) [Example 291, 5-(8-((1S,2S)-2-(4-(3-(trifluoromethyl)azetidine-1-carbonyl)phenyl)cyclopropyl)imidazo[1,2-b]pyridazin-6-yl)pyrimidine-2,4(1H,3H)-dione], the EC50 was 18.6 nM. O=C(c1ccc([C@H]2C[C@@H]2c2cc(-c3c[nH]c(=O)[nH]c3=O)nn3ccnc23)cc1)N1CC(F)(F)C1 (racemic) [Example 292, 5-(8-((1S,2S)-2-(4-(3,3-difluoroazetidine-1-carbonyl)phenyl)cyclopropyl)imidazo[1,2-b]pyridazin-6-yl)pyrimidine-2,4(1H,3H)-dione] was tested, and the EC50 was 5.72 nM. Work on CC1(C)CN(C(=O)c2ccc([C@H]3C[C@@H]3c3cc(-c4c[nH]c(=O)[nH]c4=O)nn4ccnc34)cc2)C1 (racemic) [Example 293, 5-(8-((2S,2S)-2-(4-(3,3-dimethylazetidine-1-carbonyl)phenyl)cyclopropyl)imidazo[1,2-b]pyridazin-6-yl)pyrimidine-2,4(1H,3H)-dione] yielded an EC50 of 8.8 nM. O=C(c1cccc([C@H]2C[C@@H]2c2cc(-c3c[nH]c(=O)[nH]c3=O)nn3ccnc23)c1)N1CCC1 (racemic) [Example 294, 5-(8-((2S,2S)-2-(3-(azetidine-1-carbonyl)phenyl)cyclopropyl)imidazo[1,2-b]pyridazin-6-yl)pyrimidine-2,4(1H,3H)-dione] showed an EC50 of 1.32 nM. CC1CN(C(=O)c2cccc([C@H]3C[C@@H]3c3cc(-c4c[nH]c(=O)[nH]c4=O)nn4ccnc34)c2)C1 (racemic) [Example 295, 5-(8-((1S,2S)-2-(3-(3-methylazetidine-1-carbonyl)phenyl)cyclopropyl)imidazo[1,2-b]pyridazin-6-yl)pyrimidine-2,4(1H,3H)-dione] showed an EC50 of 1.97 nM. Work on O=C(c1cccc([C@H]2C[C@@H]2c2cc(-c3c[nH]c(=O)[nH]c3=O)nn3ccnc23)c1)N1CC(C(F)(F)F)C1 (racemic) [Example 296, 5-(8-((2S,2S)-2-(3-(3-(trifluoromethyl)azetidine-1-carbonyl)phenyl)cyclopropyl)imidazo[1,2-b]pyridazin-6-yl)pyrimidine-2,4(1H,3H)-dione] yielded an EC50 of 4.38 nM. In the case of O=C(c1cccc([C@H]2C[C@@H]2c2cc(-c3c[nH]c(=O)[nH]c3=O)nn3ccnc23)c1)N1CC(F)(F)C1 (racemic) [Example 297, 5-(8-((2S,2S)-2-(3-(3,3-difluoroazetidine-1-carbonyl)phenyl)cyclopropyl)imidazo[1,2-b]pyridazin-6-yl)pyrimidine-2,4(1H,3H)-dione], the EC50 is reported as 1.31 nM. With CC1(C)CN(C(=O)c2cccc([C@H]3C[C@@H]3c3cc(-c4c[nH]c(=O)[nH]c4=O)nn4ccnc34)c2)C1 (racemic) [Example 298, 5-(8-((2S,2S)-2-(3-(3,3-dimethylazetidine-1-carbonyl)phenyl)cyclopropyl)imidazo[1,2-b]pyridazin-6-yl)pyrimidine-2,4(1H,3H)-dione] the EC50 was 2.81 nM. In the case of O=C(c1ccc([C@H]2C[C@@H]2c2cc(-c3c[nH]c(=O)[nH]c3=O)nn3ccnc23)cc1)N1C[C@@H](F)[C@H](F)C1 (racemic) [Example 299], the EC50 is reported as 24.5 nM. O=C(c1cccc([C@H]2C[C@@H]2c2cc(-c3c[nH]c(=O)[nH]c3=O)nn3ccnc23)c1)N1C[C@@H](F)[C@H](F)C1 (racemic) [Example 300, 5-(8-((2S,2S)-2-(3-((3R,4R)-3,4-difluoropyrrolidine-1-carbonyl)phenyl)cyclopropyl)imidazo[1,2-b]pyridazin-6-yl)pyrimidine-2,4(1H,3H)-dione] gave an EC50 of 1.34 nM. For O=C(c1ccc([C@H]2C[C@@H]2c2cc(-c3c[nH]c(=O)[nH]c3=O)nn3ccnc23)cc1)N1C[C@@H](F)[C@@H](F)C1 (racemic) [Example 301, 5-(8-((2S,2S)-2-(4-((3S,4R)-3,4-difluoropyrrolidine-1-carbonyl)phenyl)cyclopropyl)imidazo[1,2-b]pyridazin-6-yl)pyrimidine-2,4(1H,3H)-dione], the EC50 was 19.2 nM. Compound O=C(c1cccc([C@H]2C[C@@H]2c2cc(-c3c[nH]c(=O)[nH]c3=O)nn3ccnc23)c1)N1C[C@@H](F)[C@@H](F)C1 (racemic) [Example 302, 5-(8-((2S,2S)-2-(3-((3S,4R)-3,4-difluoropyrrolidine-1-carbonyl)phenyl)cyclopropyl)imidazo[1,2-b]pyridazin-6-yl)pyrimidine-2,4(1H,3H)-dione] has an EC50 of 6.99 nM. O=C(c1ccc([C@H]2C[C@@H]2c2cc(-c3c[nH]c(=O)[nH]c3=O)nn3ccnc23)cc1)N1CC(F)(F)C(F)(F)C1 (racemic) [Example 303, 5-(8-((1S,2S)-2-(4-(3,3,4,4-tetrafluoropyrrolidine-1-carbonyl)phenyl)cyclopropyl)imidazo[1,2-b]pyridazin-6-yl)pyrimidine-2,4(1H,3H)-dione] was tested, and the EC50 was 27.7 nM. In the case of O=C(c1cccc([C@H]2C[C@@H]2c2cc(-c3c[nH]c(=O)[nH]c3=O)nn3ccnc23)c1)N1CC(F)(F)C(F)(F)C1 (racemic) [Example 304, 5-(8-((2S,2S)-2-(3-(3,3,4,4-tetrafluoropyrrolidine-1-carbonyl)phenyl)cyclopropyl)imidazo[1,2-b]pyridazin-6-yl)pyrimidine-2,4(1H,3H)-dione], the EC50 is reported as 3.04 nM. O=C(c1ccc([C@H]2C[C@@H]2c2cc(-c3c[nH]c(=O)[nH]c3=O)nn3ccnc23)cc1)N1CCC(F)(F)C1 (racemic) [Example 305, 5-(8-((2S,2S)-2-(4-(3,3-difluoropyrrolidine-1-carbonyl)phenyl)cyclopropyl)imidazo[1,2-b]pyridazin-6-yl)pyrimidine-2,4(1H,3H)-dione] was tested, and the EC50 was 21.2 nM. O=C(c1cccc([C@H]2C[C@@H]2c2cc(-c3c[nH]c(=O)[nH]c3=O)nn3ccnc23)c1)N1CCC(F)(F)C1 (racemic) [Example 306, 5-(8-((2S,2S)-2-(3-(3,3-difluoropyrrolidine-1-carbonyl)phenyl)cyclopropyl)imidazo[1,2-b]pyridazin-6-yl)pyrimidine-2,4(1H,3H)-dione] gave an EC50 of 1.41 nM. CC1(C)CCN(C(=O)c2ccc([C@H]3C[C@@H]3c3cc(-c4c[nH]c(=O)[nH]c4=O)nn4ccnc34)cc2)C1 (racemic) [Example 307, 5-(8-((2S,2S)-2-(4-(3,3-dimethylpyrrolidine-1-carbonyl)phenyl)cyclopropyl)imidazo[1,2-b]pyridazin-6-yl)pyrimidine-2,4(1H,3H)-dione] showed an EC50 of 96.1 nM. Work on CC1(C)CCN(C(=O)c2cccc([C@H]3C[C@@H]3c3cc(-c4c[nH]c(=O)[nH]c4=O)nn4ccnc34)c2)C1 (racemic) [Example 308, 5-(8-((1S,2S)-2-(3-(3,3-dimethylpyrrolidine-1-carbonyl)phenyl)cyclopropyl)imidazo[1,2-b]pyridazin-6-yl)pyrimidine-2,4(1H,3H)-dione] yielded an EC50 of 6.47 nM. O=c1[nH]cc(-c2cc([C@H]3C[C@@H]3c3ccccc3OC(F)(F)F)c3nccn3n2)c(=O)[nH]1 (racemic) [Example 309, 5-(8-((1S,2S)-2-(2-(trifluoromethoxy)phenyl)cyclopropyl)imidazo[1,2-b]pyridazin-6-yl)pyrimidine-2,4(1H,3H)-dione] was tested, and the EC50 was 208 nM. N#Cc1cncc([C@H]2C[C@@H]2c2cc(-c3c[nH]c(=O)[nH]c3=O)nn3ccnc23)c1 (racemic) [Example 311, 5-((2S,2S)-2-(6-(2,4-dioxo-1,2,3,4-tetrahydropyrimidin-5-yl)imidazo[1,2-b]pyridazin-8-yl)cyclopropyl)nicotinonitrile] gave an EC50 of 11.6 nM.

Source: patent US12110294B2, “CD73 compounds” (Gilead Sciences, Inc., priority 2020, dated 2024)
